In ChEMBL document CHEMBL1201862, “PubChem BioAssay data set” (2004):
The source made the active and inactive calls. Rule as the data show it, for most assays here: actives have a measured IC50 and inactives only a lower limit.

Experiments:
[1] = biological target: T1, Sentrin-specific protease 7 (Homo sapiens, UniProt Q9BQF6); experiment: SENP7 protease inhibitors, SAR follow-up, biochemical, luminescence (AID 504497); format: functional
T1 sequence (Q9BQF6 whole entry): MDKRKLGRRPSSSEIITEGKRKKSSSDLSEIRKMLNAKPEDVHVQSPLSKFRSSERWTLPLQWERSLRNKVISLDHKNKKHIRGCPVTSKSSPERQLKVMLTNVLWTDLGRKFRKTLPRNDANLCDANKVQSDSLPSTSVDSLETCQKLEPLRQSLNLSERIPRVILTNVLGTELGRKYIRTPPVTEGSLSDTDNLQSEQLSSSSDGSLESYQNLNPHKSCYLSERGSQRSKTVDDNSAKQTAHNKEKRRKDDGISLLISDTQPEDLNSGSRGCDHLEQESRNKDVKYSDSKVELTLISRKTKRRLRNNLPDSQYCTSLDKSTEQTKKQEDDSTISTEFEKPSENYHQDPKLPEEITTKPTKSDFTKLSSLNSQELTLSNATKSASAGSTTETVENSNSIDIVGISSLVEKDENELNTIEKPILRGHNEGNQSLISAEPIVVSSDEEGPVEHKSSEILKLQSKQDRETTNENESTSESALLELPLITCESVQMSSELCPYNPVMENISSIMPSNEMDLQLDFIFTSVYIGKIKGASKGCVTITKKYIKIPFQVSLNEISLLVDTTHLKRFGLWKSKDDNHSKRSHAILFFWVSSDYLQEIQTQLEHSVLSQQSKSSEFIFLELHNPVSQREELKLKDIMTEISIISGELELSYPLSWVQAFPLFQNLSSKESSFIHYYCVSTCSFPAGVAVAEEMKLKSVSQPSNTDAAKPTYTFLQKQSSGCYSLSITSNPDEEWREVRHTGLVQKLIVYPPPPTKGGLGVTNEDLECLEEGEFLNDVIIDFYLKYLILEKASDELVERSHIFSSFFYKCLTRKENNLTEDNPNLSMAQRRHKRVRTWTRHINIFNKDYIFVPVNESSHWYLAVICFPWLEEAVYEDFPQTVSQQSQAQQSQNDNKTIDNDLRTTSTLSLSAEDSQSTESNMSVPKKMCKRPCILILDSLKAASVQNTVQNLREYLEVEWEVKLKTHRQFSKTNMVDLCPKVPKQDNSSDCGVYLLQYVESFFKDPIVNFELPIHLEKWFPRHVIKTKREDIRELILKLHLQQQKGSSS

[2] = biological target: T2, Caspase-3 (Homo sapiens, UniProt P42574); experiment: caspase-3 inhibitors as off-family protease, SAR follow-up, selectivity assay for SENP protease inhibitor project, biochemical, luminescence, set 2 (AID 588599); format: functional
T2 sequence (P42574 whole entry): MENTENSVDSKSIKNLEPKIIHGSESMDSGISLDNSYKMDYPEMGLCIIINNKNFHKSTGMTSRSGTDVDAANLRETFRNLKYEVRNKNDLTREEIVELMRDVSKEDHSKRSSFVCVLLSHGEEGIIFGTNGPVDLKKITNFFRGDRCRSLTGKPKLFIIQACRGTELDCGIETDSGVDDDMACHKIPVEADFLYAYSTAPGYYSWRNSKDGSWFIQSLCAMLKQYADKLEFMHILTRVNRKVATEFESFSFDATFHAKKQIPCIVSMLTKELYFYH

[3] = biological target: T3, Sentrin-specific protease 6 (Homo sapiens, UniProt Q9GZR1); experiment: SENP6 protease inhibitors, SAR follow-up, biochemical, luminescence, set 2 (AID 588598); format: functional
T3 sequence (Q9GZR1 whole entry): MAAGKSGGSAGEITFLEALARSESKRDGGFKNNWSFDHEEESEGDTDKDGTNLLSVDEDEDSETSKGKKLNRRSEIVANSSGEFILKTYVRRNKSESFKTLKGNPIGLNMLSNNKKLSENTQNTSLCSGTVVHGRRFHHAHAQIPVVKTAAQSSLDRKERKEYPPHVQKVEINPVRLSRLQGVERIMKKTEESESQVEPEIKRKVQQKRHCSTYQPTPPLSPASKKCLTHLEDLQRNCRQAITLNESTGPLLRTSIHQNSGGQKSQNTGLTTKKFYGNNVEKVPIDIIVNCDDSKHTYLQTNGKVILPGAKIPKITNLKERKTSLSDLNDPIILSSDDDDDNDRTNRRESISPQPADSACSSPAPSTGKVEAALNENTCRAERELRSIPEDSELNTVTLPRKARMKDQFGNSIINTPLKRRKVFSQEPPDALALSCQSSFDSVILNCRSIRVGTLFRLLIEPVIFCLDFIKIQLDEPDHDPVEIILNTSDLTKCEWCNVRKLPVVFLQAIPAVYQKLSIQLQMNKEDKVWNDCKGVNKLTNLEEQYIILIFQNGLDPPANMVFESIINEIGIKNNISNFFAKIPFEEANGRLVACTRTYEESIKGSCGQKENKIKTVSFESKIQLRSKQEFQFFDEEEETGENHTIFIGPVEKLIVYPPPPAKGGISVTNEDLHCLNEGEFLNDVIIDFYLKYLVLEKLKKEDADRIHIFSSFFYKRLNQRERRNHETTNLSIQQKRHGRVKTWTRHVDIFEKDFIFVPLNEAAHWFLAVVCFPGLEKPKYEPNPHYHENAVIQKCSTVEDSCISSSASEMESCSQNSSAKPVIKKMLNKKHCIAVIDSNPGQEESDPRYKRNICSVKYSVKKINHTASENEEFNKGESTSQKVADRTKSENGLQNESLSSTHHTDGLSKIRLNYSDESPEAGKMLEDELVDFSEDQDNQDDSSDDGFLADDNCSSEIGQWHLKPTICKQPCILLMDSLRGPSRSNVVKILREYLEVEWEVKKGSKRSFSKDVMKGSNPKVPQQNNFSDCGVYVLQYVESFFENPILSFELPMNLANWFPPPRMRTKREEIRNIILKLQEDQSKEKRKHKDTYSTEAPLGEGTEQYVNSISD

[4] = biological target: T4, Sentrin-specific protease 8 (Homo sapiens, UniProt Q96LD8); experiment: SENP8 protease inhibitors, SAR follow-up, biochemical, luminescence, set 2 (AID 588601); format: functional
T4 sequence (Q96LD8 whole entry): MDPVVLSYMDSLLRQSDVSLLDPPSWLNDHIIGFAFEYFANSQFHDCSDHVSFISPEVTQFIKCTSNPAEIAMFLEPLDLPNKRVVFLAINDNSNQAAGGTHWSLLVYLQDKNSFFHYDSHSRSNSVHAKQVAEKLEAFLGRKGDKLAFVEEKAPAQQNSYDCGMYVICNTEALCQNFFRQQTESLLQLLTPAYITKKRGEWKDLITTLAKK

[5] = biological target: T2, Caspase-3; experiment: SAR Analysis of small molecule inhibitors of Sentrin-specific proteases (SENPs) using a Caspase-3 Selectivity assay. [Related pubchem assays (depositor defined):AID2540, AID2599, AID434973, AID489001]; format: functional
[6] = biological target: T4, Sentrin-specific protease 8; experiment: SENP8 protease inhibitors, SAR follow-up, biochemical, luminescence (AID 504501); format: functional
[7] = biological target: T3, Sentrin-specific protease 6; experiment: SAR Analysis of small molecule inhibitors of Sentrin-specific protease 6 (SENP6) using a Luminescent assay. [Related pubchem assays (depositor defined):AID2582, AID2599]; format: functional
[8] = biological target: T1, Sentrin-specific protease 7; experiment: SENP7 protease inhibitors, SAR follow-up, biochemical, luminescence, set 2 (AID 588600); format: functional
[9] = biological target: Latent membrane protein 1 (Human herpesvirus 4 (strain B95-8), UniProt P03230); experiment: TES1-eGFP NF-kB reporter inhibition versus Tet-On dsRED, dose response, selectivity assay for LMP1 NF-kB inhibitor project, imaging, HEK293T, dual-color eGFP/dsRED, cherry-picks (AID 588398); format: functional, cell-based
[10] = cells; format: functional, cell-based
[11] = test system: HEK293; experiment: inhibitors of LMP1-driven NF-kB reporter, dose response, cell-based, HEK293, luciferase, cherry-pick (AID 588343); format: functional; details: Homo sapiens
[12] = MC4R antagonists, dose response, counter-screen for LGR2 antagonist project, cell-based, plate reader, cherry pick (AID 743444); format: functional;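 also: transfected HEK 293 cells stimulated with alpha-MSH peptide; potency of inhibitors of the alpha-MSH evoked signal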
[13] = biological target: T5, Nuclear receptor subfamily 0 group B member 1 (Homo sapiens, UniProt P51843); format: functional, cell-based;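 also: HEK293T cells transfected with SF-1 and DAX-1 plus StAR promoter luciferase reporter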
T5 sequence (P51843 whole entry): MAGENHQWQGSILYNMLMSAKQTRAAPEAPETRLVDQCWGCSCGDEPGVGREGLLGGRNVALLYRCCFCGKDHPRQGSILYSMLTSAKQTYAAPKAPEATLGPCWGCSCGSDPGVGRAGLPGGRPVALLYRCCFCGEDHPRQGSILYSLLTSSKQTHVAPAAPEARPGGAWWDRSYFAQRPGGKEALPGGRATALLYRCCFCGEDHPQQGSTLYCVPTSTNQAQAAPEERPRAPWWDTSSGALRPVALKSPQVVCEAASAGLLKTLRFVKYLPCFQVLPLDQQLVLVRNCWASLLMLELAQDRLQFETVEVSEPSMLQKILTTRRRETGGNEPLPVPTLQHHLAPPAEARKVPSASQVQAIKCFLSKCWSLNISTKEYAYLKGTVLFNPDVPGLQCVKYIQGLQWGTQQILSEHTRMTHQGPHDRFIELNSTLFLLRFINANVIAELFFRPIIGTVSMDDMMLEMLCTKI

[14] = LGR2 antagonists, dose response, cell-based, HEK293, CRE-luciferase reporter, cherry pick, set 2 (AID 743343); format: functional;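 also: transfected cells were stimulated with diluted bursicon conditioned medium after compound addition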
[15] = A549 cell cytotoxicity, dose response, cytotoxicity control, plate reader, cherry-pick, antagonist series (AID 743412); format: functional, cell-based

Latent membrane protein 1, sequence (P03230 whole entry): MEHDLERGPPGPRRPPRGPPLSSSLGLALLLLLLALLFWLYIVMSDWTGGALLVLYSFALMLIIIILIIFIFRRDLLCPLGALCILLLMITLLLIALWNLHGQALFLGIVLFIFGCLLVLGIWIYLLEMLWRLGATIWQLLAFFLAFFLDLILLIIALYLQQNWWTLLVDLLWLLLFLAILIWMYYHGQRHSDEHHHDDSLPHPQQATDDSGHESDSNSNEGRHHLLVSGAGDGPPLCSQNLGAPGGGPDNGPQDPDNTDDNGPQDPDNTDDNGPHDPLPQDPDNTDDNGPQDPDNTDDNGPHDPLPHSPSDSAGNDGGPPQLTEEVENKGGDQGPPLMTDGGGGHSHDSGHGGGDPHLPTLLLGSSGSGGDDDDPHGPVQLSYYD

Row | Compound | IC50 [1] | IC50 [2] | IC50 [3] | IC50 [4] | IC50 [5] | IC50 [6] | IC50 [7] | IC50 [8] | AC50 [9] | IC50 [10] | AC50 [11] | AC50 [12] | IC50 [13] | AC50 [14] | AC50 [15]
1 | O=C(Nc1nc2ccccc2s1)c1cccs1 | 2.5 µM (active) | 6.86 µM (active) | 2.07 µM (active) | 2.2 µM (active) | 72 µM (active) | > 99 µM (inactive) | > 99 µM (inactive) | 2.67 µM (active) | – | – | – | – | – | – | –
2 | c1ccc(-c2cn3c4c(sc3n2)CCCC4)cc1 | – | – | – | – | – | – | – | – | 31.6 µM (active) | > 67.6 µM (inactive) | 1.92 µM (active) | 4.25 µM (active) | > 67.6 µM (inactive) | 2.72 µM (active) | 41.1 µM (active)
